Laboratory results taken from PubChem BioAssay AID2305 (GlaxoSmithKline (GSK), 2010).
Values joined by “and” are separate entries in the source; they are usually repeats but may differ in a detail not shown here. Equal values may be shown once.

system: P. falciparum 3D7 growth, pLDH absorbance; assay: P. falciparum 3D7 growth inhibition, dose response, strain 3D7 (AID 2305)

SMILES	IC50
COc1cc(Cc2cnc(N)nc2N)cc(OCC(C)(C)C(=O)O)c1OC	1110 nM
CCOc1ccc(Nc2cc(C)nc(Nc3ccc(OCC)cc3)n2)cc1	870 nM
COc1cc(NCCCCCNc2cc(Cl)nc3ccccc23)nc2ccccc12	780 nM
CC1(C)N=C(N)N=C(N)N1OCCOc1ccc(Cc2ccccc2)cc1	40 nM
Cc1ccc2nc(N(CCCn3ccnc3)C(=O)C=Cc3cccs3)sc2c1	1390 nM
Cc1cccc2[nH]c(-c3cccc(-c4ccc(CNCc5cnn(-c6ccccc6)n5)cc4)c3)nc12	920 nM
CN(C)CCN(C)Cc1cccc(-c2ccc3c(Nc4ccc(F)cc4Cl)ccnc3c2)c1	110 nM
Cc1cc(=O)c(-c2ccc(OCCSc3ccc(C(F)(F)F)cn3)cc2)c(C)[nH]1	530 nM
Cc1cc(NC(=O)NCCN2CCC(NC(=O)c3ccc(C(F)(F)F)cc3)CC2)c2ccccc2n1	410 nM
CCC(C)C(COC(=O)c1cc(OC)c(OC)c(OC)c1)N(C)CCN(C)C(COC(=O)c1cc(OC)c(OC)c(OC)c1)C(C)CC (stereo not given)	950 nM
O=C(/C=C/c1ccc(Cl)c(Cl)c1)N1CCC(CN2CCC(c3c[nH]c4cc(C(F)(F)F)ccc34)CC2)CC1	800 nM
Cc1ccc(NC(=O)c2ccc3ncccc3c2)cc1OC1CCN(CCC(C)C)C1 (stereo not given)	350 nM
COc1ccc(NC(=O)Nc2cccc(-c3ccc(-c4nc5c(C)cccc5[nH]4)s3)c2)cc1	670 nM
Cc1cc(N(C)C2CCN(C)C2)nc(Nc2ccc(Cl)cc2)n1 (stereo not given)	340 nM
CNC(=O)C1Cc2c([nH]c3cc(Br)ccc23)C2(CCN(CCc3ccccc3)CC2)N1 (stereo not given)	720 nM
CCOc1cc(CNCCCCCCNCc2cc(OCC)c(OCC)c3ccccc23)c2ccccc2c1OCC	280 nM
COc1ccc2nccc([C@@H](O)CN3CCC(NC(=O)c4[nH]c5ccccc5c4-c4ccccc4)CC3)c2c1	900 nM
Oc1ccc2[nH]cc(C3CCN(CCC(c4ccccc4)c4ccccc4)CC3)c2c1	990 nM
Cc1cc(F)ccc1Nc1nc(N(C)c2ccccc2)c2cccc(O)c2n1	960 nM
Fc1ccc2nc(-c3ccc(-c4ccc(CN5CCC(CCN6CCCCC6)CC5)cc4)cc3)[nH]c2c1	130 nM
COc1ccc(Cl)cc1NC(=O)Nc1ccnc2ccccc12	680 nM
CCN(CCCN1CCCCC1)c1nc(C)cc(Nc2ccc(Cl)cc2)n1	840 nM
COc1ccc(-c2csc(N(CCCN(C)C)C(=O)c3cc4c(C)nn(-c5ccccc5)c4s3)n2)cc1	620 nM
CC(C)[C@H](NC(=O)c1ccc(O)c(-c2ccc(Cl)c(Cl)c2)c1)C(=O)NCCN1CCCCC1	340 nM

SMILES	IC50
Cc1noc(-c2ccc3c(c2)CCN(CCC2CCC(NC(=O)/C=C/c4ccc(F)cc4)CC2)CC3)n1 (stereo not given)	1030 nM
Cn1cnc(CCNC(=O)c2cccc(-c3cccc(-c4nc5ccc(C(F)(F)F)cc5[nH]4)c3)c2)c1	700 nM
COc1c(OC)c(OC)c2ccccc2c1CNCCCCCCNCc1c(OC)c(OC)c(OC)c2ccccc12	760 nM
O=C(/C=C/c1ccc(Cl)c(Cl)c1)NCCCCCN1CCC(CCNC(=O)/C=C/c2ccccc2F)CC1	870 nM
O=C(N1CCN(c2cccc(C(F)(F)F)c2)CC1)C(Cl)(Cl)Cl	890 nM
N#Cc1cccc(-c2nc(NCc3cccc(C(F)(F)F)c3)nn2-c2cccc(C(F)(F)F)c2)c1	590 nM
COc1ccc(-c2ccc(NC(=O)c3ccc(C#N)cc3)cc2)cc1CN1CCCN(C)CC1	150 nM
COc1cc2nc(NCCc3ccccc3)nc(NC(C)c3ccccc3)c2cc1OC (stereo not given)	280 nM
COc1cccc2cc(C(=O)N[C@@H](CC(C)C)C(=O)N[C@H](/C=N/NC(=O)OC(C)(C)C)CC(C)C)oc12	900 nM
CNC(=O)c1cnc(Nc2ccc(N3CCOCC3)cc2)nc1Nc1cccc(OC)c1	760 nM
CC(C)CCNC(=O)c1cc(C(=O)c2cc(F)ccc2O)cn(CCC(C)C)c1=O	750 nM
O=C(c1ccccc1N=Nc1c(-c2ccccc2)[nH]n(-c2ccccc2)c1=O)N1CCOCC1	350 nM
CCCC(CNCc1cccc(I)c1)CNc1cc(=O)c2ccccc2[nH]1 (stereo not given)	470 nM
O=c1cc(NCCCNCc2cc3c(Cl)cccc3s2)[nH]c2ccccc12	470 nM
CC(=O)N(C)c1cccc(C(=O)Nc2cccc(-c3ccc(-c4nc5ccc(C(F)(F)F)cc5[nH]4)cc3)c2)c1	1000 nM
COc1ccccc1-c1csc(C(=O)NCC2CCN(Cc3ccc(C(C)(C)C)cc3)C2)c1 (stereo not given)	1110 nM
Cc1nc(-c2ccc(C(F)(F)F)cn2)sc1C(=O)N1CCc2cc3nccc(N4CCN5CCC[C@H]5C4)c3cc21	780 nM
Cc1cc(N)ncc1-c1ccc(NC(=O)Nc2cc(C(F)(F)F)ccc2F)cc1	700 nM
NC(=O)c1ccccc1OCC(=O)Nc1ccc(-c2cccc(-c3nc4ccc(C(F)(F)F)cc4[nH]3)c2)cc1	980 nM
C=CCN1C(=O)C(=Cc2cc(Br)ccc2O)SC1=Nc1ccccc1	900 nM
CCOC(=O)c1ccc(NC(=O)Nc2cccc(-c3cccc(-c4nc5ccccc5[nH]4)c3)c2)cc1	70 nM
CCCCCCOc1ccc(C(N)=NCc2ccccc2)c2c1CCCC2	1270 nM
NC1CCN(Cc2cccc(-c3ccc(-c4nc5ccccc5[nH]4)s3)c2)C1 (stereo not given)	730 nM
CCOCc1cn(CC(=O)c2ccc(-c3ccccc3)cc2)c(C)nc1=N	320 nM

SMILES	IC50
COc1ccc(S(=O)(=O)Nc2ccc(C(=O)NCc3ccc(C(F)(F)F)cc3)cc2)cc1N1CCN(CC2CC2)CC1	1120 nM
Cc1cc2c(cc1C(F)(F)F)N(C(=O)Nc1ccc(C(=O)NCCN3CCCC3)cc1)CC2	320 nM
CNc1ccc(CNCc2ccc(-c3ccc(-c4nc5ccc(C(F)(F)F)cc5[nH]4)s3)cc2)cc1	180 nM
COc1cc(NC(=O)/C=C/c2cc(F)cc(F)c2F)cc(OCCN2CCC3(CC2)OCCO3)c1	270 nM
O=C(CCN1C(=O)c2ccccc2C1=O)N1CCN(CC=Cc2ccccc2)CC1	540 nM
O=C(NC(c1ccccc1)c1ccc2cccnc2c1O)c1ccccc1 (stereo not given)	430 nM
Oc1c(C(Nc2ccccn2)c2ccc(Cl)cc2Cl)ccc2cccnc12 (stereo not given)	890 nM
CN1CCN(c2ccnc3ccc(NC(=O)Nc4cccc5ccccc45)cc23)CC1	490 nM
CN1CCN(c2cc(-c3ccncc3)nc(-c3cccnc3)n2)CC1	810 nM
CCS(=O)(=O)Nc1ccc2[nH]c(O)c(C(=Nc3ccc(CN4CCCCC4)cc3)c3ccccc3)c2c1	60 nM
O=C([C@H]1C[C@@H]1c1ccccc1)N(Cc1ccc(-c2ccc(CNCCc3ccccc3)cc2)cc1)C1CCNCC1	1110 nM
N#Cc1ccc(NC(=NC2CCN(Cc3ccccc3)CC2)Nc2ccccc2Cl)c(O)c1	300 nM
CCCCCCN1CCCN(Cc2ccc(C(=O)Nc3ccc(CCC)cc3)cc2)CC1	660 nM
Fc1cccc(CNc2ncc(-c3ccsc3)c(-c3nccs3)n2)c1	240 nM
CCCCCCNC(=O)C(N)CCCC(N)C(=O)NCCCCCC (stereo not given)	160 nM
CCC(CC(NCCCCNC(=O)c1ccc(NC(=O)c2ccc(Cl)cc2)cc1)c1ccccc1)c1ccccc1OC (stereo not given)	670 nM and 790 nM
c1ccc2[nH]c(-c3ccc(-c4ccc(CN5CCC(N6CCCCC6)CC5)cc4)s3)nc2c1	150 nM
Cc1cccc(-c2nc(Nc3ccncc3)c3cc(N(C)C)ccc3n2)n1	710 nM
OC1(CNCc2ccccc2)CCN(CCc2c[nH]c3ccc(F)cc23)CC1	710 nM
Cc1ccc(N/C(N)=N/c2ncccc2OCc2c(F)cccc2Cl)cc1	1190 nM
Cc1ccccc1C1CCN(C2CCC(NC(=O)/C=C/c3ccc(OC(F)(F)F)cc3)CC2)CC1 (stereo not given)	860 nM
CCc1c(C(=O)NC2CCC(N3CCC(c4ccccc4OC)CC3)CC2)[nH]c2ccc(OC)cc12 (stereo not given)	1110 nM
CCCCCCCN1CC[C@@H](CCCc2ccnc3ccc(OCC4CCCNC4)cc23)[C@@H](CC)C1 (stereo not given in full)	620 nM
CS(=O)(=O)NCCCNCc1cccc(-c2ccc(-c3nc4ccc(C(F)(F)F)cc4[nH]3)cc2)c1	1000 nM

SMILES	IC50
CN1CCCC(CN2CCN(Cc3cccc(-c4ccc(-c5nc6ccc(F)cc6[nH]5)cc4)c3)CC2)C1 (stereo not given)	140 nM
NC(=O)c1ccc(NC(=O)CN(Cc2ccc(Cl)cc2)S(=O)(=O)c2ccccc2)cc1	650 nM
O=[N+]([O-])c1ccc(Nc2nc(NCc3ccccc3)nc(NN=Cc3ccccc3[N+](=O)[O-])n2)cc1	160 nM
O=C(NCCSCc1c(F)cccc1Cl)c1cnc2c(c1)nc(-c1cnc(-c3ccccc3)[nH]1)n2CCc1cnc[nH]1	810 nM
CCCc1ccc(NC(=O)c2ccc(CN3CCCN(Cc4cccc(O)c4)CC3)cc2)cc1	400 nM
Cc1cccc2[nH]c(-c3cccc(-c4ccc(CN5CCCC5CN)cc4)c3)nc12 (stereo not given)	760 nM
C[C@H](NC(=O)[C@H](CCCCNC(=O)OC(C)(C)C)NC(=O)OC(C)(C)c1ccc(-c2ccccc2)cc1)C(=O)OCc1ccccc1	180 nM
CN1CC[C@@H](Oc2cc(C(=O)NCc3ccc(Cl)c(Cl)c3)ccc2C(F)(F)F)C1	1250 nM
c1cn(-c2ccc(CNc3nccc(Nc4ccc(OCCN5CCOCC5)cc4)n3)cc2)cn1	880 nM
O=C(CCC(=O)c1ccc2c3c(cccc13)CC2)NC1CCC(CN2CCC(c3c[nH]c4ccccc34)CC2)CC1 (stereo not given)	920 nM
CCCCNc1cc(NCCCC)c2c(n1)[nH]c1ccccc12	570 nM
COC(=O)c1ccc(C[C@@H](C)NC[C@H](O)c2cccc(C(F)(F)F)c2)cc1	790 nM and 760 nM
CCNc1cc(C(=O)N[C@@H](Cc2ccccc2)[C@H](O)CNC(C)(C)Cc2cccc(OC)c2)cc(N2CCCC2=O)c1	710 nM
Cc1ccc2nc(-c3cc(-c4ccc(OCc5ccccc5)cc4)cnc3N)[nH]c2c1	1680 nM
O=S(=O)(NC1CCN(c2ccnc3cc(Cl)ccc23)C1)c1cccc(F)c1 (stereo not given)	490 nM
O=C(/C=C/c1ccc(Cl)c(Cl)c1)N1CCN(C(=O)Nc2cccc(C(F)(F)F)c2)CC1	700 nM
COc1ccc2[nH]cc(C3=CCN(C[C@H]4C[C@@H]4C(=O)c4ccccc4)CC3)c2n1	270 nM
O=C(/C=C/c1ccc(Cl)c(Cl)c1)NCCCCCN1[C@@H]2CC[C@H]1CC(c1c[nH]c3ccc(O)cc13)C2 (stereo not given in full)	880 nM and 1000 nM
Cc1cccc2[nH]c(-c3ccc(-c4cccc(CNCc5ccc(S(C)(=O)=O)cc5)c4)s3)nc12	330 nM
OC(c1cc(C(F)(F)F)nc2c(C(F)(F)F)cccc12)C1CCCCN1 (stereo not given)	70 nM
O=c1cc(NCCCCNCc2cccc(C(F)(F)F)c2)[nH]c2ccccc12	790 nM
O=C(Cc1cnc[nH]1)Nc1cccc(-c2ccc(-c3nc4ccc(C(F)(F)F)cc4[nH]3)cc2)c1	700 nM
CNC(=O)c1cnc(Nc2ccc(OCC(O)CN(C)C)cc2)nc1Nc1cccc(OC(C)C)c1 (stereo not given)	140 nM
